From ChEMBL document CHEMBL2046343, “'Click' synthesis of a triazole-based inhibitor of Met functions in cancer cells” (Bioorg Med Chem Lett, 2012) come the findings set out here.

The subject of one data set is H1437. The data set can be described thus: Inhibition of HGF-induced Met R988C mutant phosphorylation at Tyr1234 and Tyr1235 in human H1437 cells at 10 uM by immunoblotting.
In another data set the test system is MDCK. The data set can be described thus: Cytotoxicity against MDCK cells at IC50. It counts as cell-based, Canis lupus familiaris. The following applies: dog.
The target in data set [1] is Hepatocyte growth factor receptor (Canis lupus familiaris) (UniProt Q75ZY9). The data set is described as follows: Inhibition of HGF-induced Met phosphorylation at Tyr1234 and Tyr1235 in MDCK cells at 10 uM by immunoblotting. It counts as cell-based. On the technique in general: Immunoblotting shows a protein as a band on a membrane.
Hepatocyte growth factor receptor (Canis lupus familiaris), sequence (Q75ZY9 whole entry): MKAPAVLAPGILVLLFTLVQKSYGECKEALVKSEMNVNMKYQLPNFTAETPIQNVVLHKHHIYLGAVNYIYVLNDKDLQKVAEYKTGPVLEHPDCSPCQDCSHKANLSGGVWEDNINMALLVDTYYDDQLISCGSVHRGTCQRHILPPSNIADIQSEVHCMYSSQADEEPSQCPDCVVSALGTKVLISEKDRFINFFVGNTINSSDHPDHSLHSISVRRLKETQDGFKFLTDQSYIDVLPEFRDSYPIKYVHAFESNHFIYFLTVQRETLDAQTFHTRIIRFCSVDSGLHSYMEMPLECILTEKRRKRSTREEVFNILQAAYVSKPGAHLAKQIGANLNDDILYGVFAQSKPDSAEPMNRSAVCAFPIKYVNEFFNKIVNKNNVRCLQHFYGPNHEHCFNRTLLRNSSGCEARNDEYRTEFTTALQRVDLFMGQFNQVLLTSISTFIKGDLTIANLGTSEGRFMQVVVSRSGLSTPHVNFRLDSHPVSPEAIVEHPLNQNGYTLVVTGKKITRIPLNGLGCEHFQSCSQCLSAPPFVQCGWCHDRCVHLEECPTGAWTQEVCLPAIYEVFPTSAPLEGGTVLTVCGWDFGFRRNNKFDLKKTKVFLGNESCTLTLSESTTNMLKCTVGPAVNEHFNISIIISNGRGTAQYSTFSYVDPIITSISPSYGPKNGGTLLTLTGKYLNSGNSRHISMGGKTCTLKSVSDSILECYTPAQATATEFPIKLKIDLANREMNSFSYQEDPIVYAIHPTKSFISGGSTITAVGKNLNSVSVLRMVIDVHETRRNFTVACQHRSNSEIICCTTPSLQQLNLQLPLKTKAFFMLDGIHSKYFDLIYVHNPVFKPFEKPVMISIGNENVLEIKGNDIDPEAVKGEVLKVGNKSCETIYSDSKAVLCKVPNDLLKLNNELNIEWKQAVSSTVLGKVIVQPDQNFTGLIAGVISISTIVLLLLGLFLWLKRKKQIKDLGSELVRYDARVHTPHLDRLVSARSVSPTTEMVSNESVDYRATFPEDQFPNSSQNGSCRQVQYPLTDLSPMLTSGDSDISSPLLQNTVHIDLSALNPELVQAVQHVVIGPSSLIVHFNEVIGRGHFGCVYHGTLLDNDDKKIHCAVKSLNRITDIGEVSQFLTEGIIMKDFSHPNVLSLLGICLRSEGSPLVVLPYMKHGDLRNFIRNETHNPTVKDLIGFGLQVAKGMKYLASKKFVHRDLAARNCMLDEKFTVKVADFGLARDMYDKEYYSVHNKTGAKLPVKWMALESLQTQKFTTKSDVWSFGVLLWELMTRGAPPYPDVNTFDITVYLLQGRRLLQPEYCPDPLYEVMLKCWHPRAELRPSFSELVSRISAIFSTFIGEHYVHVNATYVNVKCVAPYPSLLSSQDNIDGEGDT
The next data set relates to NCI-H1437. The data set can be described thus: Cytotoxicity against human NCI-H1437 cells assessed as inhibition of anchorage-independent cell growth treated every 3 days for 2 weeks by MTT assay. It counts as functional, cell-based. Background: Tetrazolium dyes change colour on reduction, which living cells bring about.
The nature of data set [2]: (§1) Cytotoxicity against human GTL16 cells expressing MET assessed as inhibition of anchorage-independent cell growth treated every 3 days for 2 weeks by MTT assay. Format: functional, cell-based. The following applies: GTL 16.
Another data set deals with GTL 16. The data set is described as §1. It counts as functional, cell-based.

Active and inactive are the calls of the source. The calls are words filed in the database; no cut-off is given here.

Turning to `O=C(Cc1cc(C(F)(F)F)cc(C(F)(F)F)c1)NC(Cc1ccccc1)c1cn(-c2ccc(-c3cn4c(n3)sc3ccccc34)cc2)nn1` (stereo not given), the inhibition result (in the data set on H1437; in data set [1]) was “Active” in each case. The Activity result in the data set on MDCK is “Non-toxic”. Besides, the “growth inhibition (GI)” value in the data set with NCI-H1437 and in the data set with GTL 16 was “Dose-dependent effect” in each case. In addition, the IC50 in data set [2] is 8.5 µM.
Regarding `O=C(Cc1cc(C(F)(F)F)cc(C(F)(F)F)c1)N[C@H](Cc1ccccc1)C(=O)Nc1ccc(-c2cn3c(n2)sc2ccccc23)cc1`, the Activity result with MDCK is reported as “Non-toxic”. The IC50 in data set [2] came out at 1.19 µM.
Taken in the same sequence, the figures for `O=C(Cc1cc(C(F)(F)F)cc(C(F)(F)F)c1)N[C@@H](Cc1ccccc1)C(=O)Nc1ccc(-c2cn3c(n2)sc2ccccc23)cc1` were “Non-toxic” and 0.8 µM.

As usually defined, the IC50 is the point on the concentration scale where inhibition reaches its midpoint.
